Assays:
[1] = test system: mouse osteoblast-like cell line MC3T3-E1 Subclone-4; assay: Proliferation-promoting activity on osteoblastic precursor cells (BrdU uptake); format: cell-based
Protocol: The mouse osteoblast-like cell line MC3T3-E1 Subclone-4 (ATCC No. CRL-2593) was cultured in α-MEM medium supplemented with 10% FBS at 37° C. in 5% CO2-95% air to subconfluence. The cells were collected by trypsinization. The collected cells were suspended at 5×10^4 cells/mL in fresh α-MEM medium with the same supplement. One hundred microliters of the cell suspension was seeded in each well of a 96-well plate, and precultured at 37° C. in 5% CO2-95% air. On the next day, the medium was replaced with α-MEM medium containing the sample dissolved therein with a supplement of 0.1% FBS. The cells were further cultured for 24 hours. The proliferative activity of the osteoblastic precursor cells was assessed by measuring the amount of BrdU uptake. The proliferation-promoting activity of the sample on the osteoblastic precursor cells was expressed as a value relative to the proliferation level of the cells in the absence of the sample, which was taken as 100.

[2] = test system: mouse chondrogenic cell line ATDC5; assay: Proliferation-promoting activity on chondrogenic cells (BrdU uptake); format: cell-based; details: ATDC5, 24 hours, relative to absence of sample = 100, FIGS. 5 and 6
Protocol: The mouse chondrogenic cell line ATDC5 (RCB0565) was cultured in DMEM/F-12 medium supplemented with 5% FBS, 3×10-8 M sodium selenite and 5 μg/mL human transferrin at 37° C. in 5% CO2-95% air to subconfluence. The cells were collected by trypsinization. The collected cells were suspended at 5×10^4 cells/mL in fresh DMEM/F-12 medium with the same supplements. One hundred microliters of the cell suspension was seeded in each well of a 96-well plate, and precultured at 37° C. in 5% CO2-95% air. On the next day, the medium was replaced with DMEM/F-12 medium containing the sample dissolved therein with a supplement of 3×10^−8 M sodium selenite and 5 μg/mL human transferrin. The cells were further cultured for 24 hours. The proliferative activity of the chondrogenic cells was assessed by measuring the amount of BrdU uptake. The proliferation-promoting activity of the sample on the chondrogenic cells was expressed as a value relative to the proliferation level of the cells in the absence of the sample, which was taken as 100.

[3] = test system: insulin-like growth factor (IGF-1); assay: Promoting effect on IGF-1 production after single oral dose (Example 8); format: in vivo; details: rats
Protocol: The synthetic peptide No. 1 or No. 2 or water for injection (control) was orally administered as a single dose to male Wistar rats at the age of four weeks by using a gastric tube (n=6 in each group). The dosage of the synthetic peptide No. 1 or No. 2 was 10 mg/kg. The blood was collected from the tail before administration and 30, 45, 60 and 90 minutes after administration, and the serum was separated. At 120 minutes after administration, the whole blood was collected from the abdominal vena cava under anesthesia and the rats were euthanized (see FIG. 25). The concentration of IGF-1 in the serum was measured by ELISA (Mouse/Rat IGF-I Quantikine ELISA Kit (MG100), R&D Systems, Inc.).
(§1) The concentration dependence of the synthetic peptides was examined. The synthetic peptide No. 1 was orally administered as a single dose of 1, 5 or 10 mg/kg (n=6 in each group). At 60 minutes after administration, the rats were euthanized under anesthesia, and the liver was harvested. The concentration of IGF-1 in the serum and liver was measured. For the serum IGF-1 concentration, the difference (Δ value) before and after administration was also determined.
as §1, with “The” for “The concentration dependence of the synthetic peptides was examined. The”, “No. 2” for “No. 1”, “administered to the rats” for “administered”, “of 0.1, 1” for “of 1, 5”, “At 45” for “At 60”

[4] = test system: insulin-like growth factor (IGF-1); assay: IGF-1 production: peptide No. 2 versus reverse sequence and constituent amino acids (Example 9); format: in vivo; details: rats, single oral dose 10 mg/kg, 45 minutes, groups No. 2, R-No. 2, AA, control
Protocol: The synthetic peptide No. 2, a peptide consisting of a reverse sequence of the peptide No. 2 (SEQ ID NO: 3; herein also called R-No. 2), constituent amino acids of the synthetic peptide No. 2 (herein also called AA), or water for injection (control) was orally administered as a single dose to male Wistar rats at the age of four weeks by using a gastric tube (n=6 in each group). The dosage of the synthetic peptide, the reverse sequence peptide and the constituent amino acids was 10 mg/kg. At 45 minutes after administration, the rats were euthanized under anesthesia, and the liver was harvested. The concentration of IGF-1 in the serum and liver was measured by ELISA (Mouse/Rat IGF-I Quantikine ELISA Kit (MG100), R&D Systems, Inc.). For the serum IGF-1 concentration, the difference (Δ value) before and after administration was also determined.

male Crlj:WI rats [5] = assay: Bone growth-promoting effect on rats in the growth phase, seven days (Example 3); format: in vivo; details: hGH 500 μg/kg/day subcutaneous, versus control group
Protocol: The synthetic peptide No. 1 or water for injection (control) was administered to male Crlj:WI rats at the age of four weeks by oral gavage using a gastric tube once a day for seven days (n=10 in each group). The dosage of the synthetic peptide was 1, 10 or 100 mg/kg/day. As a positive control, human growth hormone (hGH) (Norditropin, Japan Standard Commodity Classification Number: 872412) was subcutaneously administered at 500 μg/kg/day once a day for seven days. As fluorescent labels for the bone formation site, tetracycline (20 mg/kg) was subcutaneously administered on day 4 after the administration of the peptide or controls, and then calcein (10 mg/kg) was subcutaneously administered on day 6 after the administration of the peptide or controls. After the administration of the sample on day 7, the rats were kept under fasting conditions. […] Undecalcified specimens of the proximal tibia were prepared and photographed under a fluorescent microscope (BX-53, Olympus Corporation), and the bone morphology was measured using a morphometry system (Histometry RT digitizer, System Supply Co., Ltd.). The longitudinal growth rate (Lo.G.R.) of the growth plate per day was determined by measuring the distance between the tetracycline and calcein labels and dividing the distance by the time interval between the administrations of the two fluorescent labels (two days).

male Crlj:WI rats [6] = assay: Osteogenesis-promoting effect on growth plate and secondary cancellous bone, 21 days (Example 5); format: in vivo; details: peptide 100 mg/kg/day oral, hGH 500 μg/kg/day subcutaneous, versus control group, FIG. 14
Protocol: The synthetic peptide No. 1 or water for injection (control) was administered to male Crlj:WI rats at the age of four weeks by oral gavage using a gastric tube once a day for 21 days. The dosage of the synthetic peptide was 100 mg/kg/day. As a positive control, human growth hormone (hGH) was subcutaneously administered at 500 μg/kg/day once a day for 21 days. As fluorescent labels for the bone formation site, tetracycline (20 mg/kg) was subcutaneously administered on day 18 after the administration of the peptide or controls, and then calcein (10 mg/kg) was subcutaneously administered on day 20 after the administration of the peptide or controls. After the administration of the sample on day 21, the rats were kept under fasting conditions. […] Undecalcified specimens of the proximal tibia were prepared and photographed under a fluorescent microscope (BX-53, Olympus Corporation), and the bone morphology was measured using a morphometry system (Histometry RT digitizer, System Supply Co., Ltd.) and an analysis software (CSS-840 cancellous bone morphometry version, System Supply Co., Ltd.). The longitudinal growth rate (Lo.G.R.) of the epiphyseal plate per day was determined by measuring the distance between the tetracycline and calcein labels and dividing the distance by the time interval between the administrations of the two fluorescent labels (two days).

male Crlj:WI rats [7] = assay: Calcification rate and morphometry in secondary cancellous bone, seven days (Example 6); format: in vivo; details: peptide 1, 10 or 100 mg/kg/day oral, hGH 500 μg/kg/day subcutaneous, versus control group, FIG. 18
Protocol: The synthetic peptide No. 1 or water for injection (control) was administered to male Crlj:WI rats at the age of four weeks by oral gavage using a gastric tube once a day for seven days (n=10 in each group). The dosage of the synthetic peptide was 1, 10 or 100 mg/kg/day. As a positive control, human growth hormone (hGH) (Norditropin, Japan Standard Commodity Classification Number: 872412) was subcutaneously administered at 500 μg/kg/day once a day for seven days. As fluorescent labels for the bone formation site, tetracycline (20 mg/kg) was subcutaneously administered on day 4 after the administration of the peptide or controls, and then calcein (10 mg/kg) was subcutaneously administered on day 6 after the administration of the peptide or controls. After the administration of the sample on day 7, the rats were kept under fasting conditions. […] Undecalcified specimens of the proximal tibia were prepared and photographed under a fluorescent microscope (BX-53, Olympus Corporation), and the bone morphology was measured using a morphometry system (Histometry RT digitizer, System Supply Co., Ltd.). The daily calcification rate (mineral apposition rate) was determined by measuring the distance between the tetracycline and calcein labels in the secondary cancellous bones and dividing the distance by the time interval between the administrations of the two fluorescent labels (two days).

[8] = Effect on body weight (Example 7); format: in vivo; details: rats, days 1, 3, 5 and 7; peptide 1, 10 or 100 mg/kg/day oral, hGH 500 μg/kg/day subcutaneous; FIG. 24
Protocol: The synthetic peptide No. 1 or water for injection (control) was administered to male Crlj:WI rats at the age of four weeks by oral gavage using a gastric tube once a day for seven days (n=10 in each group). The dosage of the synthetic peptide was 1, 10 or 100 mg/kg/day. As a positive control, human growth hormone (hGH) (Norditropin, Japan Standard Commodity Classification Number: 872412) was subcutaneously administered at 500 μg/kg/day once a day for seven days. The body weight was measured on days 1, 3, 5 and 7 of administration.

Substance | proliferation-promoting activity on osteoblastic precursor cells ([1]; MC3T3-E1, 24 hours, BrdU uptake, relative to absence of sample = 100, FIGS. 3 and 4) | concentration at which the proliferation-promoting effect is exhibited ([1]; MC3T3-E1, BrdU uptake) | proliferation-promoting activity on osteoblastic precursor cells, comparison between the peptides ([1]; MC3T3-E1, BrdU uptake, No. 2 versus No. 1) | proliferation-promoting activity on chondrogenic cells [2] | concentration of IGF-1 in the serum (time course) ([3]; single oral dose 10 mg/kg, at 45 and 60 minutes after administration, versus control, FIG. 27) | dose dependence of IGF-1 concentration in the serum and liver ([3]; single oral dose 0.1, 1 or 10 mg/kg, 45 minutes) | concentration of IGF-1 in the serum ([3]; single oral dose 0.1, 1 or 10 mg/kg, 45 minutes after administration, versus control group, FIG. 30) | concentration of IGF-1 in the liver ([3]; single oral dose 0.1, 1 or 10 mg/kg, 45 minutes after administration, versus control group, FIG. 31) | concentration of IGF-1 in the serum ([4]; FIG. 32) | concentration of IGF-1 in the liver ([4]; FIG. 33) | area of the hypertrophic cartilage layer (male Crlj:WI rats [5]; peptide 10 mg/kg/day oral, FIG. 9) | longitudinal growth rate (Lo.G.R.) of the growth plate per day (male Crlj:WI rats [5]; peptide 1, 10 or 100 mg/kg/day oral, FIG. 8) | longitudinal growth rate (Lo.G.R.) of the epiphyseal plate per day (male Crlj:WI rats [6]) | calcification rate (mineral apposition rate) in the secondary cancellous bone (male Crlj:WI rats [7]) | change in the body weight [8]
Val-Asn-Pro-Glu (VNPE) [synthetic peptide No. 2] | promoted the proliferation | sufficiently exhibited its effect at a low concentration | higher activity than the synthetic peptide No. 1 | promoted the proliferation | significantly higher | increased in a dose-dependent manner | significantly higher | significantly higher | significantly higher | significantly higher |  |  |  |  | 
hGH: human growth hormone (hGH) (Norditropin), positive control, subcutaneously administered |  |  |  |  |  |  |  |  |  |  | significantly larger | significant promotion of bone growth | significant promotion of bone growth | significant increase | No significant change

From patent US11241475B2, “Preventive and/or therapeutic agent for osteogenesis imperfecta and other diseases” (Pharma Foods International Co., Ltd., priority 2016, dated 2022)
